This note sets out measurements from US20090234019A1, “T Type Calcium Channel Inhibitors” (priority 2004, published 2009).

The test system of experiment [1] is Jurkat cells. The experiment in a line: Inhibition of proliferation of Jurkat cells. The format is cell-based, human. Conditions: Homo sapiens; Jurkat; NE = no effect at highest concentration of drug tested; read-out: prolif: IC50 for inhibition of proliferation, Jurkat. As to the method:
(§1) Cancer cell lines were obtained from the American Type Culture Collection (Manassas, Va.). Cell lines were maintained in RPMI1640 supplemented with glutamine and 5% fetal bovine serum containing SerXtend (Irvine Scientific) when appropriate insulin, as directed by the ATCC. The fetal bovine serum used for culture was heat-inactivated by maintaining the serum at 56° C. for 1 h. Cell lines used were a T celleukemia (Jurkat), prostate cancer (PC3, DU145, LNCAP), breast cancer (MDA468, MDA361, MCF7), pancreatic cancer (MIA PaCa2), liver cancer (Hep G2), lung cancer (A549, NCl H460), colon cancer (HT29, HCT 116), and ovarian cancer (SK-OV-3).
(§2) LNCaP cells at 2.5×10^4 cells/well or PC-3 cells at 5×10^4 cells/well, both in a final volume of […], were plated in triplicate in standard flat-bottomed 96-well tissue culture plates in the presence of drug or vehicle (DMSO). Unless otherwise indicated, cells were grown for 48 h at 37° C. in a CO2 incubator. Relative cell growth was determined with the CellTiter 96 aqueous cell proliferation assay (Promega, Madison, Wis.) as described by the manufacturer using an automated plate reader. Results were calculated in a blinded fashion and are the means of triplicate determinations.

In experiment [2] the test system is MDA-361 cells. The experiment in a line: Inhibition of calcium entry into MDA-361 cells. The format is cell-based. Conditions: MDA361, NE = no effect at highest concentration of drug tested, read-out: Ca2+: IC50 for inhibition of calcium entry, MDA-361. As to the method:
(§3) Cells were incubated in growth media containing 1 uM of the acetoxy-methyl ester of the Ca2+-sensitive fluorescent dye indo-1 (indo-1/AM; Molecular Probes, Eugene, Oreg.) for 1 h at 37° C. Cells were washed three times in buffer A [10 mM HEPES (pH 7.4), 1 mM MgCl2, 3 mM KCl, 1 mM CaCl2, 140 mM NaCl, 0.1% glucose, and 1% fetal bovine serum] and suspended to a final concentration of 10^6 cells/ml. Before stimulation, cells were warmed to 37° C. Changes in [Ca2+]i were monitored in an SLM 8100C spectrofluorimeter (SLM/Aminco; Urbana, Ill.) using previously published methods (Densmore, J. J., Haverstick, D. M., Szabo, G., and Gray, L. S. 1996. A voltage operable current is involved in activation-induced Ca^2+ entry in human lymphocytes whereas ICRAC has no apparent role. Am. J. Physiol. 271:C1494-C1503; Haverstick, D. M., Densmore, J. J., and Gray, L. S. 1998. Calmodulin regulation of Ca^2+ entry in Jurkat T cells. Cell Calcium 23:361-368).

In experiment [3] the test system is MDA-435 cells. The experiment in a line: Inhibition of proliferation of MDA-435 cells. The format is cell-based. Conditions: MDA435, NE = no effect at highest concentration of drug tested, read-out: prolif: IC50 for inhibition of proliferation, MDA-435.
For experiment [4], the system named is MDA-231 cells. The experiment in a line: Inhibition of calcium entry into MDA-231 cells. Conditions: Homo sapiens, MDA-MB-231, NE = no effect at highest concentration of drug tested, read-out: Ca2+: IC50 for inhibition of calcium entry, MDA-231. The format is cell-based. As to the method:
as §3

The subject of experiment [5] is PC3 cells. The experiment in a line: Inhibition of proliferation of PC3 cells. The format is cell-based, human. The following applies: Homo sapiens, PC-3; PC3; NE = no effect at highest concentration of drug tested; read-out: prolif: IC50 for inhibition of proliferation, PC3. The procedure:
as §1, §2

The test system of experiment [6] is Jurkat cells. As to the kind of experiment: Inhibition of calcium entry into Jurkat cells (indo-1 fluorescence). The format is cell-based, human. Conditions: Homo sapiens; Jurkat; NE = no effect at highest concentration of drug tested; read-out: Ca2+: IC50 for inhibition of calcium entry, Jurkat. The procedure:
as §3, with “8100C” left out, “([…].,” for “(Densmore, J. J., Haverstick, D. M.,”, “271:[…].,” for “271:C1494-C1503; Haverstick, D. M., Densmore, J. J.,”

Experiment [7] relates to MDA-231 cells. As to the kind of experiment: Inhibition of proliferation of MDA-231 cells. The format is cell-based. Conditions: Homo sapiens, MDA-MB-231, NE = no effect at highest concentration of drug tested, read-out: prolif: IC50 for inhibition of proliferation, MDA-231.
Experiment [8] has as its system LNCaP cells. As to the kind of experiment: Inhibition of proliferation of LNCaP cells. The format is cell-based. Conditions: Homo sapiens, NE = no effect at highest concentration of drug tested, read-out: prolif: IC50 for inhibition of proliferation, LNCaP. The procedure: as §1, §2
Experiment [9] has as its system MDA-435 cells. The experiment in a line: Inhibition of calcium entry into MDA-435 cells. The format is cell-based. Conditions: MDA435, NE = no effect at highest concentration of drug tested, read-out: Ca2+: IC50 for inhibition of calcium entry, MDA-435. As to the method:
as §3

Experiment [10] relates to MDA-361 cells. The experiment in a line: Inhibition of proliferation of MDA-361 cells. The format is cell-based. The following applies: MDA361, NE = no effect at highest concentration of drug tested, read-out: prolif: IC50 for inhibition of proliferation, MDA-361. The procedure:
as §1, §2

For experiment [11], the system named is LNCaP cells. The experiment in a line: Inhibition of calcium entry into LNCaP cells. The format is cell-based. The following applies: Homo sapiens, NE = no effect at highest concentration of drug tested, read-out: Ca2+: IC50 for inhibition of calcium entry, LNCaP. As to the method: as §3
Experiment [12] concerns PC3 cells. The experiment in a line: Inhibition of calcium entry into PC3 cells. The format is cell-based. Conditions: Homo sapiens, PC-3, NE = no effect at highest concentration of drug tested, read-out: Ca2+: IC50 for inhibition of calcium entry, PC3. As to the method: as §3
For experiment [13], the system named is HEK293 cells stably transfected the α1H gene. The experiment in a line: Proliferation of HEK293 cells stably transfected with α1H. The format is cell-based. The following applies: FIG. 5.

Consider `COc1ccc(CNCCCCCC(c2ccccc2)c2ccc(Cl)cc2)cc1` (stereo not shown) [Compound 3.1], for which the IC50 in the experiment with Jurkat cells [1] came to 4 µM; with MDA-361 cells [2], 10 µM; in the experiment with MDA-435 cells [3], 12 µM; with MDA-231 cells [4], 10 µM; with PC3 cells [5] it was 11 µM; with Jurkat cells [6], 10 µM. Further, the IC50 worked out at 8 µM with MDA-231 cells [7]; 3.5 µM with LNCaP cells [8]; 25 µM with MDA-435 cells [9]; 8 µM in the experiment with MDA-361 cells [10]; 10 µM with LNCaP cells [11].

As to `COc1ccc(CCNCCCCC(c2ccccc2)c2ccc(Cl)cc2)cc1` (stereo not shown) [Compound 3.19], the IC50 was found to be 4 µM with Jurkat cells [1]; 11 µM in the experiment on MDA-435 cells [3]; 10 µM in the experiment on MDA-231 cells [4]; 10 µM in the experiment on PC3 cells [5]; 10 µM with Jurkat cells [6]; 6 µM with MDA-231 cells [7]. The values for the IC50 in the experiment on LNCaP cells [8], in the experiment with MDA-435 cells [9] and in the experiment on LNCaP cells [11] were 3 µM, 10 µM and 10 µM, respectively.

For the compound `COc1ccc(CCCNCCOC(c2ccccc2)c2ccc(Cl)cc2)cc1` (stereo not shown) [Compound 3.4], the IC50 was 3.7 µM in the experiment on Jurkat cells [1]; 10 µM with MDA-361 cells [2]; 10 µM in the experiment on MDA-435 cells [3]; about 20 µM with MDA-231 cells [4]; 10 µM with PC3 cells [5]; 3 µM with Jurkat cells [6]. For the same compound, the IC50 in the experiment on MDA-231 cells [7] is 4 µM; with LNCaP cells [8], 5.5 µM; in the experiment on MDA-435 cells [9], 15 µM; with MDA-361 cells [10], 4 µM; in the experiment with PC3 cells [12], about 15 µM; with LNCaP cells [11], 15 µM.

In the case of `COc1ccc(CNCCCCOC(c2ccccc2)c2ccc(Cl)cc2)cc1` (stereo not shown) [Compound 3.2], the IC50 in the experiment with Jurkat cells [1] amounted to 3 µM; with MDA-361 cells [2], 6 µM; with MDA-435 cells [3] it was 10.5 µM; with MDA-231 cells [4], 8 µM; with PC3 cells [5], 9 µM; in the experiment with Jurkat cells [6], 3 µM. The IC50 turned out to be 10 µM in the experiment with MDA-231 cells [7]; 2 µM with LNCaP cells [8]; 10 µM in the experiment with MDA-435 cells [9]; 4 µM in the experiment on MDA-361 cells [10]; 10 µM with PC3 cells [12]; 5 µM with LNCaP cells [11].

In the case of `COc1ccc(C(=O)CCCCOC(c2ccccc2)c2ccc(Cl)cc2)cc1` (stereo not shown) [Compound 3.6], the IC50 in the experiment with Jurkat cells [1], with MDA-361 cells [2], in the experiment with MDA-435 cells [3], in the experiment on MDA-231 cells [4], in the experiment with PC3 cells [5] and in the experiment with Jurkat cells [6] was over 100 µM in each case. Also, the IC50 with MDA-231 cells [7] is over 100 µM; in the experiment on LNCaP cells [8], about 100 µM; in the experiment with MDA-435 cells [9], over 100 µM; in the experiment with MDA-361 cells [10], over 100 µM; in the experiment with PC3 cells [12] it was over 100 µM; in the experiment with LNCaP cells [11], over 100 µM.

Turning to `COc1ccc(CCNCCOC(c2ccccc2)c2ccc(Cl)cc2)cc1` (stereo not shown) [Compound 3.8], the IC50 worked out at 7.5 µM in the experiment on Jurkat cells [1]; 20 µM with MDA-361 cells [2]; 15.7 µM in the experiment on MDA-435 cells [3]; 10 µM in the experiment with MDA-231 cells [4]; 11.5 µM in the experiment on PC3 cells [5]; 10 µM in the experiment on Jurkat cells [6]. The IC50 turned out to be 10.6 µM with MDA-231 cells [7]; 3.5 µM in the experiment with LNCaP cells [8]; 10 µM in the experiment on MDA-435 cells [9]; 7.6 µM with MDA-361 cells [10]; 10 µM in the experiment on PC3 cells [12]; 10 µM in the experiment on LNCaP cells [11].

As to `COc1ccc(C(O)CCCCOC(c2ccccc2)c2ccc(Cl)cc2)cc1` (stereo not shown) [Compound 3.5], the IC50 in the experiment with Jurkat cells [1] turned out to be 50 µM; in the experiment on MDA-361 cells [2], 25 µM; with MDA-435 cells [3] it was 65 µM; in the experiment with MDA-231 cells [4], 10 µM; in the experiment on PC3 cells [5], 33 µM; in the experiment on Jurkat cells [6], 7 µM. The IC50 with MDA-231 cells [7] came to 50 µM; in the experiment on LNCaP cells [8] it was 25 µM; in the experiment with MDA-435 cells [9], 10 µM; in the experiment with MDA-361 cells [10] it was 45 µM; with PC3 cells [12], 30 µM; in the experiment on LNCaP cells [11], 10 µM.

Regarding `COc1ccc(CNCc2ccccc2COC(c2ccccc2)c2ccc(Cl)cc2)cc1` (stereo not shown) [Compound 3.11], the IC50 in the experiment with Jurkat cells [1] came to 5.4 µM; with MDA-361 cells [2], 10 µM; in the experiment with MDA-435 cells [3], 22 µM; in the experiment on MDA-231 cells [4], 20 µM; in the experiment on PC3 cells [5] it was 14 µM; in the experiment with Jurkat cells [6], 3.3 µM. Besides, the IC50 with MDA-231 cells [7] was 11.6 µM; in the experiment with LNCaP cells [8], 3.3 µM; in the experiment with MDA-361 cells [10] it was 8.5 µM.

As to `COc1ccc(CNCCOC(c2ccccc2)c2ccc(Cl)cc2)cc1` (stereo not shown) [Compound 3.9], the IC50 in the experiment on Jurkat cells [1] was 3.8 µM; in the experiment with MDA-361 cells [2] it was 5 µM; in the experiment with MDA-435 cells [3] it was 12 µM; in the experiment on MDA-231 cells [4] it was 10 µM; in the experiment on PC3 cells [5] it was 4 µM; in the experiment on Jurkat cells [6], 3 µM. The IC50 came out at 11.7 µM in the experiment with MDA-231 cells [7]; 1.6 µM in the experiment with LNCaP cells [8]; 10 µM with MDA-435 cells [9]; 4 µM with MDA-361 cells [10]; 3 µM in the experiment with LNCaP cells [11].

`COc1ccc(NCCCCCCC(c2ccccc2)c2ccc(Cl)cc2)cc1` (stereo not shown) [Compound 3.17]: the IC50 in the experiment on Jurkat cells [1] is over 100 µM; with MDA-435 cells [3] it was over 100 µM; in the experiment with MDA-231 cells [4], 30 µM; with PC3 cells [5] it was over 100 µM; in the experiment with Jurkat cells [6], 30 µM; in the experiment with MDA-231 cells [7], over 100 µM. Further, the IC50 with LNCaP cells [8] is over 100 µM; with MDA-435 cells [9], 30 µM; with LNCaP cells [11], 30 µM.

As to `COc1ccc(CCCCNCCC(c2ccccc2)c2ccc(Cl)cc2)cc1` (stereo not shown) [Compound 3.21], the IC50 amounted to 30 µM in the experiment with Jurkat cells [1]; 9 µM in the experiment with MDA-435 cells [3]; 30 µM with MDA-231 cells [4]; 11 µM in the experiment with PC3 cells [5]; 30 µM with Jurkat cells [6]; 15 µM in the experiment with MDA-231 cells [7]. Moreover, the results for the IC50 in the experiment with LNCaP cells [8] and in the experiment on PC3 cells [12] were 7 µM and 30 µM, respectively.

Turning to `COCC(=O)O[C@]1(CCN(C)CCCc2nc3ccccc3[nH]2)CCc2cc(F)ccc2[C@@H]1C(C)C` [mibefradil, reference compound], the “proliferation of stably transfected HEK293 cells” value in experiment [13] is “inhibits proliferation”.
